The values that follow come from patent US20220389009A1, “SUBSTITUTED 1,6-NAPHTHYRIDINE INHIBITORS OF CDK5” (Goldfinch Bio, Inc., priority 2019, published 2022).

One assay has as its target CDK5/p25 (Homo sapiens, UniProt Q00535). Nature of the assay: CDK5 mobility shift assay (enzymatic activity of CDK5/p25). The conditions noted are these: for pIC50: 0.154 nM CDK5/p25, FL peptide 29, 60 min at room temperature, read-out: CDK5 IC50. It counts as biochemical. The protocol: (§1) Compound potency was measured via a change in the enzymatic activity of CDK5/p25, and optionally of CDK2/CycA2. Enzymes, CDK5/p25 and CDK2/CycA2, were sourced from Carna Biosciences (Cat #04-106 and 04-103, respectively). Test compound stocks were diluted in 100% DMSO and serially diluted 3-fold in a 384-well plate using a TECAN EVO200 (TECAN). Staurosporine was used as a reference control compound in all assays.
(§2) Twenty nL of compound were transferred into a 384-well plate (Greiner 781201) using an Echo550 (Labcyte Inc). Enzyme, ATP, and 10 mM MgCl2 were preincubated at room temperature with the compound in assay buffer (50 mM HEPES pH 7.5, 1 mM EGTA, 0.01% Brij-35, 0.05% BSA, 2 mM DTT) for 30 minutes. Peptide substrate (FL peptide 29 (Perkin Elmer) for CDK5/p25; FL Peptide 18 (Perkin Elmer) for CDK2/CycA2) was added to initiate the reaction. The final assay contained 0.154 nM CDK5/p25 or 1.25 nM CDK2/CycA2, […] (for CDK5/p25) or 37 μM (for CDK2/CycA2) ATP, and 1.5 μM of the appropriate peptide substrate. The final DMSO concentration was <1%.
(§3) The CDK5/p25 reaction was incubated at room temperature for 60 min. The CDK2/CycA2 reaction was incubated at room temperature for 120 min. The reactions were quenched by the addition of 70 μL stopping buffer containing 0.5 M EDTA. Samples were analyzed using the EZ Reader (Perkin Elmer).
(§4) The results were expressed as % vehicle, where % vehicle=100×(U−C2)/(C1−C2), where U is the signal of sample, C1 is the average of the high controls (signal with no compound added), and C2 is the average of low controls (signal with the buffer in place of enzyme). The ICso is determined by fitting the percentage of inhibition as a function of compound concentrations using a 4-parameter fit defined as follows.
(§5) Y=Bottom+(Top−Bottom)/(1+10^((LobIC50-X)*Hill Slope)), where X is the log of the compound concentration, Y is the % vehicle or response at X, Top and Bottom are the plateaus in the same units as Y, and the Hill's Slope is unitless, and the ICso is the half-maximal inhibitory concentration.

For a further assay, the target named is CDK2/CycA2 (Homo sapiens, UniProt P24941). As to the kind of experiment: CDK2 mobility shift assay (enzymatic activity of CDK2/CycA2). It counts as biochemical. The conditions noted are these: 1.25 nM CDK2/CycA2, 37 μM ATP, FL Peptide 18, 120 min at room temperature; read-out: CDK2 IC50. On the procedure:
as §1, §2, §3, §4, §5

Where [1] appears, read: fold more active against CDK5 than CDK2.

pIC50: −log10 of the molar value. Where two headings read alike, the source gives them in different places.

CDK5/p25, sequence (Q00535 whole entry): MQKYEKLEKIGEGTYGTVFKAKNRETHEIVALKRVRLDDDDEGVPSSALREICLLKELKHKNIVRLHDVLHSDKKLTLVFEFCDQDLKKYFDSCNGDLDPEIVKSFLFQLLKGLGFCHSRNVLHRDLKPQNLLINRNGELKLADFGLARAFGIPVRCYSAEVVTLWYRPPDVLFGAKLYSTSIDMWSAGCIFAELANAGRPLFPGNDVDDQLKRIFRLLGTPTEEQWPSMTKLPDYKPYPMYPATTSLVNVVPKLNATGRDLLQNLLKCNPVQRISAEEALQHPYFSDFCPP
CDK5/p25, sequence (Q15078 99-307 partner limits assumed): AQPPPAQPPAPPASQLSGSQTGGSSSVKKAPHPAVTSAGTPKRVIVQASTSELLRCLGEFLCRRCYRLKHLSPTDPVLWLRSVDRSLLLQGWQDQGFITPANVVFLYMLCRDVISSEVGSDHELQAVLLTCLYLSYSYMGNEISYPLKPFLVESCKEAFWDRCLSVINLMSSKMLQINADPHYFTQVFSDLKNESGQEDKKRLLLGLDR

Broadly, the pIC50 is −log10 of the IC50, conventionally taken in molar units. With `COC(=O)c1ccn(-c2ccc(Nc3cc4nc(C(O)C5CCN(C)CC5)ccc4cn3)c(F)c2)n1` (stereo not drawn) [Compound 344], the negative-log IC50 (pIC50) at CDK5/p25 is 6.00 to 7.00; on CDK2/CycA2 it was < 6.00. Further, the CDK5/CDK2 specificity entry on CDK5/p25 (setting [1]) is “++ (greater than 10-fold and less than or equal to 100-fold more active against CDK5 than CDK2)”.

As to `CN1CCC(S(=O)(=O)c2ccc3cnc(Nc4cccc(N5CCN(C)CC5)c4)cc3n2)CC1` [Compound 277], the results for the pIC50 on CDK5/p25 and on CDK2/CycA2 were > 8.00 and 6.00 to 7.00, respectively. Further, the CDK5/CDK2 specificity entry on CDK5/p25 (setting [1]) is “++ (greater than 10-fold and less than or equal to 100-fold more active against CDK5 than CDK2)”.

`O=C(c1ccc2cnc(Nc3ccc(-n4cccn4)cc3F)cc2n1)C1CCNCC1` [Compound 141, N-[2-fluoro-4-(pyrazol-1-yl)phenyl]-2-(piperidine-4-carbonyl)-1,6-naphthyridin-7-amine]: the pIC50 on CDK5/p25 is > 8.00; at CDK2/CycA2 it was 7.00 to 8.00. In addition, the CDK5/CDK2 specificity entry on CDK5/p25 (setting [1]) was “++ (greater than 10-fold and less than or equal to 100-fold more active against CDK5 than CDK2)”.

Turning to `Fc1cc(-n2cccn2)ccc1Nc1cc2nc(C=C3CCNCC3)ccc2cn1` [Compound 130, N-[2-fluoro-4-(pyrazol-1-yl)phenyl]-2-(piperidin-4-ylidenemethyl)-1,6-naphthyridin-7-amine], the pIC50 is 7.00 to 8.00 on CDK5/p25 and < 6.00 at CDK2/CycA2. Also, at CDK5/p25 (setting [1]), the CDK5/CDK2 specificity result is “++ (greater than 10-fold and less than or equal to 100-fold more active against CDK5 than CDK2)”.

As to “3-fluoro-4-([2-[(1R)-1-hydroxy-1-(1-methylpiperidin-4-yl)ethyl]-1,6-naphthyridin-7-yl]amino)-[1,1-biphenyl]-3-carboxylic acid [Compound 360]”, on CDK5/p25, the CDK5/CDK2 specificity entry is “++ (greater than 10-fold and less than or equal to 100-fold more active against CDK5 than CDK2)”; the pIC50 is > 8.00. At CDK2/CycA2, the pIC50 is 7.00 to 8.00.

With `CCC(c1ccc2cnc(Nc3ccc(-n4ccc(CO)n4)cc3F)cc2n1)C1CCN(C)CC1` (stereo not drawn) [Compound 246], the pIC50 is 6.00 to 7.00 on CDK5/p25 and < 6.00 on CDK2/CycA2. Besides, the CDK5/CDK2 specificity entry at CDK5/p25 (setting [1]) is “++ (greater than 10-fold and less than or equal to 100-fold more active against CDK5 than CDK2)”.

Consider `COC(=O)CCc1nnc(Nc2cc3nc(S(=O)(=O)C4CCN(C)CC4)ccc3cn2)s1` [Compound 264], for which the pIC50 on CDK5/p25 and on CDK2/CycA2 was < 6.00 in each case. Besides, the CDK5/CDK2 specificity result at CDK5/p25 (setting [1]) is reported as “+ (10-fold or less more active against CDK5 than CDK2)”.

Regarding `CNC(=O)c1ccc(Nc2cc3nc(S(=O)(=O)C4CCN(C)CC4)ccc3cn2)cc1` [Compound 268], the pIC50 on CDK5/p25 is > 8.00; on CDK2/CycA2, 6.00 to 7.00. In addition, the CDK5/CDK2 specificity entry on CDK5/p25 (setting [1]) was “++ (greater than 10-fold and less than or equal to 100-fold more active against CDK5 than CDK2)”.

As for `O=S(=O)(c1ccc2cnc(Nc3ccc(-n4ccc(CO)n4)cc3F)cc2n1)N1CCNCC1` [Compound 208, [1-(3-fluoro-4-[[2-(piperazine-1-sulfonyl)-1,6-naphthyridin-7-yl]amino]phenyl)pyrazol-3-yl]methanol], the pIC50 is 7.00 to 8.00 at CDK5/p25 and 6.00 to 7.00 at CDK2/CycA2. Further, the CDK5/CDK2 specificity entry on CDK5/p25 (setting [1]) is “+ (10-fold or less more active against CDK5 than CDK2)”.

As for `NC(=O)c1cccc(Nc2cc3nc(SC4CCNCC4)ccc3cn2)c1` [Compound 134, 3-[[2-(piperidin-4-ylsulfanyl)-1,6-naphthyridin-7-yl]amino]benzamide], the pIC50 on CDK5/p25 is > 8.00; on CDK2/CycA2, 7.00 to 8.00. Also, the CDK5/CDK2 specificity entry on CDK5/p25 (setting [1]) is “++ (greater than 10-fold and less than or equal to 100-fold more active against CDK5 than CDK2)”.

Turning to `CN1CCC(C(O)c2ccc3cnc(Nc4ccc(-n5cccn5)cc4F)cc3n2)CC1` (single isomer, unassigned) [Compound 175, (7-[[2-fluoro-4-(pyrazol-1-yl)phenyl]amino]-1,6-naphthyridin-2-yl) (1-methylpiperidin-4-yl)methanol], the pIC50 at CDK5/p25 was > 8.00; on CDK2/CycA2, 6.00 to 7.00. At CDK5/p25 (setting [1]), the CDK5/CDK2 specificity result is “+++ (greater than 100-fold more active against CDK5 than CDK2)”.

With `CN1CCC(C(C)(O)c2ccc3cnc(Nc4ccc(-n5cccn5)cc4F)cc3n2)CC1` (single isomer, unassigned) [Compound 216, 1-(7-[[2-fluoro-4-(pyrazol-1-yl)phenyl]amino]-1,6-naphthyridin-2-yl)-1-(1-methylpiperidin-4-yl)ethanol], the negative-log IC50 (pIC50) at CDK5/p25 is > 8.00; at CDK2/CycA2, 7.00 to 8.00. Moreover, the CDK5/CDK2 specificity entry at CDK5/p25 (setting [1]) is “++ (greater than 10-fold and less than or equal to 100-fold more active against CDK5 than CDK2)”.

Take `CN1CCC([C@@](C)(O)c2ccc3cnc(Nc4ccc(-c5cccc(C(N)=O)c5)cc4F)cc3n2)CC1` [Compound 364, (R)-3′-fluoro-4′-((2-(1-hydroxy-1-(1-methylpiperidin-4-yl)ethyl)-1,6-naphthyridin-7-yl)amino)-[1,1′-biphenyl]-3-carboxamide]: the pIC50 was > 8.00 on CDK5/p25 and 7.00 to 8.00 at CDK2/CycA2. For the same molecule, on CDK5/p25 (setting [1]), the CDK5/CDK2 specificity result was “++ (greater than 10-fold and less than or equal to 100-fold more active against CDK5 than CDK2)”.

`COc1cc(-c2ccc(Nc3cc4nc(C(C)C5CCN(C)CC5)ccc4cn3)c(F)c2)ccn1` (stereo not drawn) [Compound 339]: the results for the pIC50 on CDK5/p25 and on CDK2/CycA2 were 7.00 to 8.00 and < 6.00, respectively. For the same molecule, the CDK5/CDK2 specificity result on CDK5/p25 (setting [1]) is “++ (greater than 10-fold and less than or equal to 100-fold more active against CDK5 than CDK2)”.

Consider `CN(c1ccc2cnc(Nc3ccccc3F)cc2n1)C1CCNCC1` [Compound 100, N7-(2-fluorophenyl)-N2-methyl-N2-(piperidin-4-yl)-1,6-naphthyridine-2,7-diamine], for which the pIC50 on CDK5/p25 was 6.00 to 7.00; at CDK2/CycA2 it was < 6.00. For the same molecule, on CDK5/p25 (setting [1]), the CDK5/CDK2 specificity entry was “++ (greater than 10-fold and less than or equal to 100-fold more active against CDK5 than CDK2)”.

Consider `Cc1cccc(Nc2cc3nc(C(C)(O)C4CCN(C)CC4)ccc3cn2)c1` (stereo not drawn) [Compound 341], for which the pIC50 at CDK5/p25 is > 8.00; on CDK2/CycA2, 7.00 to 8.00. Further, at CDK5/p25 (setting [1]), the CDK5/CDK2 specificity result was “++ (greater than 10-fold and less than or equal to 100-fold more active against CDK5 than CDK2)”.

With `CC(c1ccc2cnc(Nc3ccc(-n4ccc(CO)n4)cc3F)cc2n1)C1CCN(C)CC1` (single isomer, unassigned) [Compound 186, [1-[3-fluoro-4-([2-[1-(1-methylpiperidin-4-yl)ethyl]-1,6-naphthyridin-7-yl]amino)phenyl]pyrazol-3-yl]methanol], the values for the pIC50 at CDK5/p25 and at CDK2/CycA2 were 7.00 to 8.00 and < 6.00, respectively. The CDK5/CDK2 specificity result at CDK5/p25 (setting [1]) was “++ (greater than 10-fold and less than or equal to 100-fold more active against CDK5 than CDK2)”.

As for `COC(=O)c1cnn(-c2ccc(Nc3cc4nc(S(=O)(=O)C5CCN(C)CC5)ccc4cn3)c(F)c2)c1` [Compound 288], the pIC50 was > 8.00 at CDK5/p25 and < 6.00 on CDK2/CycA2. Further, on CDK5/p25 (setting [1]), the CDK5/CDK2 specificity entry was “+++ (greater than 100-fold more active against CDK5 than CDK2)”.

Take `CN1CCC(C(C)(O)c2ccc3cnc(Nc4ccc(-c5cccc(=O)[nH]5)cc4F)cc3n2)CC1` (stereo not drawn) [Compound 393]: the pIC50 is > 8.00 on CDK5/p25 and 7.00 to 8.00 at CDK2/CycA2. The CDK5/CDK2 specificity result on CDK5/p25 (setting [1]) was “++ (greater than 10-fold and less than or equal to 100-fold more active against CDK5 than CDK2)”.

`CN1CCC(S(=O)(=O)c2ccc3cnc(Nc4ccc(S(C)(=O)=O)cc4)cc3n2)CC1` [Compound 271]: the pIC50 was > 8.00 at CDK5/p25 and 7.00 to 8.00 at CDK2/CycA2. For the same molecule, the CDK5/CDK2 specificity entry at CDK5/p25 (setting [1]) is given as “+ (10-fold or less more active against CDK5 than CDK2)”.

Consider `CN1CCC(C(C)(O)c2ccc3cnc(Nc4ccc(-c5cccc(C#N)c5)cc4F)cc3n2)CC1` (stereo not drawn) [Compound 335], for which the pIC50 at CDK5/p25 was > 8.00; at CDK2/CycA2 it was 7.00 to 8.00. In addition, at CDK5/p25 (setting [1]), the CDK5/CDK2 specificity result is “++ (greater than 10-fold and less than or equal to 100-fold more active against CDK5 than CDK2)”.

Regarding `CN1CCC2(CC1)CC2c1ccc2cnc(Nc3ccc(-n4cccn4)cc3F)cc2n1` (stereo not drawn) [Compound 164, N-[2-fluoro-4-(pyrazol-1-yl)phenyl]-2-[6-methyl-6-azaspiro[2.5]octan-1-yl]-1,6-naphthyridin-7-amine], the results for the negative-log IC50 (pIC50) on CDK5/p25 and at CDK2/CycA2 were 6.00 to 7.00 and < 6.00, respectively. On CDK5/p25 (setting [1]), the CDK5/CDK2 specificity entry was “++ (greater than 10-fold and less than or equal to 100-fold more active against CDK5 than CDK2)”.
